System: Cavia porcellus
Test: Anti-cardiac arrhythmia activity in anaesthetised guinea pig assessed as cumulative dose inducing prolongation of monophasic action potential duration by 10% from baseline administered as first dose infusion in 0.2 mL/kg into jugular vein catheter for 30 secs followed by next dosing after 5 mins for 6 to 10 consecutive times by electrophysiology based assay
Assay type: functional

Structure (SMILES)	D10 [mg/kg]
Cc1[nH]c2ccccc2c1CN1CC2CN(CCNS(=O)(=O)c3ccc(C#N)cc3)CC(C1)O2	>5.5
Cc1nn(C)c(Cl)c1S(=O)(=O)NCCN1CC2CN(CCOc3ccc(C#N)cc3)CC(C1)O2	>5.5
N#Cc1ccc(S(=O)(=O)NCCN2CC3CN(CCc4c(F)cccc4F)CC(C2)O3)cc1	>5.5
Cc1oncc1S(=O)(=O)NCCN1CC2CN(CCCOc3ccc(C#N)cc3)CC(C1)O2	>5.5
N#Cc1ccc(S(=O)(=O)NCCN2CC3CN(Cc4c[nH]c5ccccc45)CC(C2)O3)cc1	>5.5
O=S(=O)(NCCN1CC2CN(CCc3ccc(F)cc3)CC(C1)O2)c1ccc(F)cc1	>5.5
N#Cc1ccc(CN2CC3CN(CCNS(=O)(=O)c4ccc(F)cc4)CC(C2)O3)cc1	>5.5
N#Cc1ccc(OCCCN2CC3CN(CCNS(=O)(=O)c4ccc(F)cc4F)CC(C2)O3)cc1	>5.5
N#Cc1ccc(S(=O)(=O)NCCN2CC3CN(CCc4ccccc4)CC(C2)O3)cc1	>5.5
N#Cc1ccc(S(=O)(=O)NCCN2CC3CN(CCCOc4ccccc4F)CC(C2)O3)cc1	>5.5
N#Cc1ccc(S(=O)(=O)NCCCN2CC3CN(CCCOc4ccc(F)cc4)CC(C2)O3)cc1	>5.5
CN(CCN1CC2CN(Cc3ccc(C#N)cc3)CC(C1)O2)S(=O)(=O)c1ccc(C#N)cc1	>5.5
N#Cc1ccc(S(=O)(=O)NCCN2CC3CN(CCc4ccc(F)cc4)CC(C2)O3)cc1	>5.5
CN(CCN1CC2CN(CCOc3c(F)cccc3F)CC(C1)O2)S(=O)(=O)c1ccc(C#N)cc1	>5.5
N#Cc1ccc(OCCN2CC3CN(CCCNS(=O)(=O)c4ccc(F)cc4)CC(C2)O3)cc1	>5.5
N#Cc1ccc(S(=O)(=O)NCCN2CC3CN(CCCOc4c(F)cc(C#N)cc4F)CC(C2)O3)cc1	>5.5
CN(CCN1CC2CN(Cc3ccc(F)cc3)CC(C1)O2)S(=O)(=O)c1ccc(C#N)cc1	>5.5
N#Cc1ccc(CN2CC3CN(CCNS(=O)(=O)c4cccc(C#N)c4)CC(C2)O3)cc1	>5.5
N#Cc1ccc(OCCCN2CC3CN(CCNS(=O)(=O)c4ccccc4OC(F)(F)F)CC(C2)O3)cc1	>5.5
N#Cc1ccc(S(=O)(=O)NCCN2CC3CN(Cc4c[nH]c5ccc(F)cc45)CC(C2)O3)cc1	>5.5
N#Cc1ccc(S(=O)(=O)NCCN2CC3CN(Cc4coc5ccccc45)CC(C2)O3)cc1	>5.5
Cc1noc(C)c1S(=O)(=O)NCCN1CC2CN(CCOc3ccc(C#N)cc3F)CC(C1)O2	>5.5
CN(CCN1CC2CN(Cc3ccccc3)CC(C1)O2)S(=O)(=O)c1ccc(C#N)cc1	>5.5
O=S(=O)(NCCN1CC2CN(Cc3ccc(F)cc3)CC(C1)O2)c1ccc(F)cc1	>5.5
N#Cc1cccc(S(=O)(=O)NCCN2CC3CN(CCOc4ccc(C#N)cc4F)CC(C2)O3)c1	>5.5
N#Cc1ccc(OCCN2CC3CN(CCNS(=O)(=O)c4cccc(F)c4)CC(C2)O3)c(F)c1	>5.5
N#Cc1ccc(S(=O)(=O)NCCN2CC3CN(CCOc4c(F)cccc4F)CC(C2)O3)cc1	>5.5

Structure (SMILES)	D10 [mg/kg]
N#Cc1ccc(OCCN2CC3CN(CCCNS(=O)(=O)c4ccccc4)CC(C2)O3)cc1	>5.5
Cc1noc(C)c1S(=O)(=O)NCCN1CC2CN(CCCOc3ccc(C#N)cc3)CC(C1)O2	>5.5
CN(CCN1CC2CN(CCc3cccc(F)c3)CC(C1)O2)S(=O)(=O)c1ccc(C#N)cc1	>5.5
N#Cc1ccc(S(=O)(=O)NCCCN2CC3CN(CCOc4ccc(C#N)cc4F)CC(C2)O3)cc1	>5.5
CS(=O)(=O)NCCN1CC2CN(CCOc3ccc(C#N)cc3)CC(C1)O2	>5.5
N#Cc1ccc(S(=O)(=O)NCCN2CC3CN(CCc4ccc(F)cc4F)CC(C2)O3)cc1	>5.5
N#Cc1ccc(OCCN2CC3CN(CCNS(=O)(=O)c4ccc(F)cc4)CC(C2)O3)c(F)c1	>5.5
O=S(=O)(NCCN1CC2CN(CCc3ccccc3)CC(C1)O2)c1ccc(F)cc1	>5.5
CN(CCN1CC2CN(CCOc3ccc(C#N)cc3)CC(C1)O2)S(=O)(=O)c1ccc2c(c1)CCO2	>5.5
N#Cc1ccc(CN2CC3CN(CCNS(=O)(=O)c4ccccc4C#N)CC(C2)O3)cc1	>5.5
N#Cc1ccc(OCCCN2CC3CN(CCNS(=O)(=O)c4ccc(C#N)cc4)CC(C2)O3)cc1	>5.5
N#Cc1ccc(OCCN2CC3CN(CCNS(=O)(=O)c4ccc5c(c4)CCO5)CC(C2)O3)cc1	>5.5
O=S(=O)(NCCN1CC2CN(Cc3ccccc3)CC(C1)O2)c1ccc(F)cc1	>5.5
N#Cc1ccc(S(=O)(=O)NCCN2CC3CN(CCc4ccc(F)c(F)c4)CC(C2)O3)cc1	>5.5
CC(C)S(=O)(=O)NCCN1CC2CN(CCCOc3ccc(C#N)cc3)CC(C1)O2	>5.5
N#Cc1ccc(S(=O)(=O)NCCCN2CC3CN(CCc4ccccc4F)CC(C2)O3)cc1	>5.5
N#Cc1ccc(OCCN2CC3CN(CCNS(=O)(=O)Cc4cccc(Cl)c4)CC(C2)O3)cc1	>5.5
N#Cc1ccc(S(=O)(=O)NCCCN2CC3CN(Cc4ccc(F)cc4)CC(C2)O3)cc1	>5.5
CN(CCN1CC2CN(Cc3ccc(C#N)cc3F)CC(C1)O2)S(=O)(=O)c1ccc(C#N)cc1	>5.5
N#Cc1ccc(S(=O)(=O)NCCN2CC3CN(CCCOc4ccc(C#N)cc4F)CC(C2)O3)cc1	>5.5
Cc1noc(C)c1S(=O)(=O)NCCCN1CC2CN(CCOc3ccc(C#N)cc3)CC(C1)O2	>5.5
N#Cc1ccc(OCCCN2CC3CN(CCNS(=O)(=O)c4cccc(F)c4)CC(C2)O3)cc1	>5.5
N#Cc1ccc(S(=O)(=O)NCCN2CC3CN(CCCOc4cccc(F)c4)CC(C2)O3)cc1	>5.5
Cc1noc(C)c1CN1CC2CN(CCNS(=O)(=O)c3ccc(C#N)cc3)CC(C1)O2	>5.5
CN(CCN1CC2CN(CCc3ccc(Cl)cc3)CC(C1)O2)S(=O)(=O)c1ccc(C#N)cc1	>5.5
CN(CCN1CC2CN(CCOc3ccc(C#N)cc3F)CC(C1)O2)S(=O)(=O)c1ccc2c(c1)CCO2	>5.5
N#Cc1ccc(S(=O)(=O)NCCN2CC3CN(Cc4ccc(F)cc4)CC(C2)O3)cc1	>5.5

— ChEMBL document CHEMBL3880410, “Novel oxabispidine compounds and their use in the treatment of cardiac arrhythmias” (2009)
